Laboratory results: patent US20050107289A1, “Anti-microbial peptides and compositions” (priority 2001, published 2005)
Non-standard residues stand in square brackets, D forms with d. Residues, ends and D or L forms follow the SMILES beside them.

Key:
[1] = test system: S. aureus (MRSA) ATCC 33591; type: cell-based, Staphylococcus aureus; details: for In Vitro MRSA MIC / MRSA MIC / S. aureus (MRSA) MIC: ATCC 33591; for MRSA (in vitro activity): Table 9, media a: anti-microbial media-3 (AM-3)
Outline: (§1)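 Broth macro- or microdilution MIC per NCCLS M7-A4. Peptides were serially 2-fold diluted in 5% DMSO/9% aqueous sucrose, about 400–2 μg/ml (dilution-series concentrations). Overnight cultures were diluted 4000-fold to an inoculum of about 2.5×10^5 cfu/ml.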

E. coli JM109(DE3) = type: cell-based, Escherichia coli; details: JM109
Outline: as §1

murine red blood cells = experiment: Red blood cell hemolysis; type: cell-based, mouse
Outline: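 Hemolysis read as A560 of supernatant, scaled between saline (0%) and 1% Triton X-100 (100%) controls; peptides were serially diluted onto 5% murine red cells in saline plus 10% FBS and incubated 30 min at 37° C.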

[2] = test system: vancomycin-resistant Enterococus faecalis (VRE)(ATCC 51575); type: cell-based, Enterococcus faecalis; parameters: key to VRE (in vitro activity): peptide concentration in μg/ml (broth dilution assay); details: for In Vitro VREF MIC / VRE MIC: ATCC 51575; for VRE (in vitro activity): Table 9, media a: AM-3
Outline: as §1

[3] = test system: S. aureus MRSA (ATCC 33591); experiment: Mouse peritonitis model, MRSA protection; type: in vivo, mice; parameters: PD50 MRSA: unit not given here; details: for mice survived: fourteen-day study; for PD50 MRSA: Table 12, male Balb-C mice, IP infection, IP peptide; for In Vivo MRSA PD50: Table 13; for protection of mice from MRSA infection: single bolus IP dose of appropriate amount, 45-60 min after infection
Protocol: Bacteria were prepared for in vivo using procedures similar to those as previously described. […] S. aureus MRSA bacteria (ATCC 33591) were grown at 37° C. in 5 mL of Antibiotic Medium-3 (AM-3, Difco Laboratories) with agitation for 12 hours to a stationary phase. Cells were collected by centrifugation, washed twice with saline solution and resuspended in about 10 mL of saline to an O.D.650 of 1.2. This suspension was diluted ten times in a sterilized 5% mucin (Difco) in saline to a concentration of 2-4×10^7 cfu/ml (actual inoculum size was verified by colony counts on agar plates).
Peptides of the invention were tested in mice to ascertain whether they would protect the mice against bacterial infection using procedures similar to those described in N. Frimodt-Moller et al., The Mouse Peritonitis/Sepsis Model, in Zak et al. (eds.) HANDBOOK OF ANIMAL MODELS OF INFECTION 127-37 (Academic Press 1999).
Male Balb-C mice (6 weeks old, approximately 20 g) were used in the study. Staphylococcus aureus MRSA bacteria (ATCC 33591) were grown at 37° C. with agitation for 12 hours to a stationary phase. Cells were collected by centrifugation, washed twice with saline and resuspended to an O.D.650 of 1.4. This suspension was diluted ten times with saline and resuspended to a concentration of 3-5×10^7 cfu/ml. For each peptide five groups of eight mice per group were infected I.P. with 0.5 ml of the above Staphylococcus aureus MRSA preparation (lethal dose). Forty-five minutes to an hour after infection, each group was treated with a different dose of peptide and a control group received vehicle only. Mice were monitored for fourteen days; death was defined as the end point. Median protecting doses (PD50) were calculated following the Reed and Muench method. […] For IV and SQ models peptide was administered immediately after IP infection.

Row | Compound | In Vitro MRSA MIC [1] | MRSA MIC [1] | S. aureus (MRSA) MIC [1] | MRSA (in vitro activity) [1] | E. coli MIC (E. coli JM109(DE3)) | In Vitro RBC MIC (murine red blood cells) | RBC Hemolysis (HD50) (murine red blood cells) | In Vitro VREF MIC [2] | VRE MIC [2] | VRE (in vitro activity) [2] | PD50 S. aureus MRSA infection [3] | mice survived ([3]; 40 mg/kg bolus SQ) | mice survived ([3]; 2.5×5 mg/kg IV dosage regimen) | PD50 protective dose where 50% of animals survive ([3]; FIG. 6, mice challenged with lethal doses of MRSA) | PD50 MRSA [3] | In Vivo MRSA PD50 [3] | protection of mice from MRSA infection [3] | HD50 (murine red blood cells) | reduction in hemolytic activity (murine red blood cells) | Hemolysis HD50 (murine red blood cells; red cells of murine)
1 | CC(C)C[C@H]1NC(=O)[C@H](Cc2c[nH]c3ccccc23)NC(=O)[C@@H](CCCCN)NC(=O)[C@H](CCCNC(=N)N)NC(=O)[C@@H](CCCNC(=N)N)NC(=O)[C@H](Cc2c[nH]c3ccccc23)NC(=O)[C@@H](CC(C)C)NC(=O)[C@H](Cc2c[nH]c3ccccc23)NC1=O [SEQ ID NO:18, cyclo-(D-Arg-Arg-D-Lys-Trp-D-Leu-Trp-D-Leu-Trp)] (cyclo([dR]R[dK]W[dL]W[dL]W)) | 6 µg/mL | 5 µg/mL | 6 µg/mL | 5 | 15 µg/mL | 50 µg/mL | 50 | 5 µg/mL | 5 µg/mL | 5 | 8 mg/kg | 75% | 50% | 5 ± 2 mg/kg | 8 | 8 mg/kg | completely protect |  |  | 
2 | CC(C)C[C@H]1NC(=O)[C@H](Cc2c[nH]c3ccccc23)NC(=O)[C@@H](CCCNC(=N)N)NC(=O)[C@H](CCC(N)=O)NC(=O)[C@@H](CCCCN)NC(=O)[C@H](Cc2c[nH]c3ccccc23)NC(=O)[C@@H](CC(C)C)NC(=O)[C@H](Cc2c[nH]c3ccccc23)NC1=O [SEQ ID NO:8, cyclo-(D-Lys-Gln-D-Arg-Trp-D-Leu-Trp-D-Leu-Trp)] (cyclo([dK]Q[dR]W[dL]W[dL]W)) | 12 µg/mL |  | 6 µg/mL |  | 80 µg/mL | 40 µg/mL |  | 12 µg/mL |  |  | 7 mg/kg |  |  |  | 7 | 7 mg/kg | completely protect | 10 µg/mL | five-fold | 45 µg/mL
3 | CC(C)C[C@H]1NC(=O)[C@H](Cc2c[nH]c3ccccc23)NC(=O)[C@@H](CCCCN)NC(=O)[C@H](CO)NC(=O)[C@@H](CCCCN)NC(=O)[C@H](Cc2c[nH]c3ccccc23)NC(=O)[C@@H](CC(C)C)NC(=O)[C@H](Cc2c[nH]c3ccccc23)NC1=O [SEQ ID NO:12, D-Lys-Ser-D-Lys-Trp-D-Leu-Trp-D-Leu-Trp] (cyclo([dK]S[dK]W[dL]W[dL]W)) | 5 µg/mL | 5 µg/mL | 5 µg/mL | 5 | 40 µg/mL | 100 µg/mL | 100 | 15 µg/mL | 15 µg/mL | 15 | 20 mg/kg |  |  |  | 20 | 20 mg/kg | completely protect |  |  | 
